Tested on: Staphylococcus epidermidis (ATCC 12228)
Assay: In vitro bacteria competition assay (co-culture)
Assay type: cell-based
Conditions: 1:1 co-culture with S. aureus in Nutrient Broth, 24 hours aerobic, colony counts; percentages w/v %
Method: In vitro bacteria competition assay evaluated Staphylococcus epidermidis (ATCC 12228, skin health associated strain) and Staphylococcus aureus (ATCC 6538, human lesion isolate) co-culture in the presence of test materials. Percentages are w/v % in liquid medium (Nutrient Broth, Culture Media and Supplies Inc.) To mimic the microenvironment of the skin surface, an aerobic, co-culture system of S. epidermidis and S. aureus was established. 50 μL S. epidermidis and 50 μL S. aureus (a 1:1 ratio) were inoculated (50 μL at approximately 5.0×10^6 CFU/mL each) in Nutrient Broth and in the presence of the test materials as specified in Table 14 below. [table] Test groups were incubated aerobically for 24 hours (n=3 per test group) After 24 hours, each test group was plated onto agar and incubated aerobically for 24 hours […]. After incubation, colonies were counted, and CFU/mL calculated. S. epidermidis and S. aureus colonies were differentiated on agar (Tryptic Soy Agar+5% sheep's blood, BD Diagnostics) based on representative morphology.

CC(O)C(=O)O (stereo not shown) [Lactic Acid (1.1%), Lactic acid]
Bacteria Competition Assay: S. epidermidis growth versus untreated: inhibited

From patent US20260053760A1, “Compositions Suitable for Use on Skin Afflicted with Eczema” (Kenvue Brands LLC, priority 2022, published 2026)
